Measured values as given in patent US10260068B2, “Prophylactic agent and therapeutic agent for fibrodysplasia ossificans progressiva” (Sumitomo Dainippon Pharma Co., Ltd., priority 2014, dated 2019).
Numbering of substitutions follows the chain as printed. Blank lines part the entries; values can stand above or below the substance they belong to. d = 2'-deoxy (DNA); r = 2'-OH (RNA)

Columns and labels:
BMP responsive sequence = experiment: Luciferase reporter after siRNA knockdown of ACVR1 or BMPR1A in FOP patient derived cells treated with activin A; assay type: cell-based, human; conditions: activin A 16 hours
Description: Patient iPS cell line-derived mesenchymal stem cell-like cells were prepared by the same method as Example 1. The cells were transfected with a Firefly luciferase reporter plasmid having the BMP responsive sequence in the promoter region, a plasmid having a nucleic acid sequence coding for Renilla luciferase downstream of the CMV promoter, as an internal standard, and siRNA for ACVR1 or BMPR1A, using a Lipofectamine 2000 (product of Invitrogen Corp.), for knockdown of ACVR1 or BMPR1A expression. BMPR1A is a type I receptor that transmits the BMP signal. The siRNA used for knockdown was siRNA purchased from Applied Biosystems, having two different sequences for each gene (Catalog Nos. ACVR1:S975, S976, BMPR1A:S281, S282). The cells were also cultured for 16 hours with addition of activin A in the same manner as Example 1. The cells were then solubilized and the luciferase activity was measured. In FIG. 5, the bar graph indicates the mean values for each treated group, and the error bars represent S.D. Here, the sequences of the siRNA used for the test were S975: sense strand: 5′-GGAUCAUUCGUGUACAUCAtt-3′ (SEQ ID NO: 37), antisense strand: 5′-UGAUGUACACGAAUGAUCCaa-3′ (SEQ ID NO: 38), S976: sense strand: 5′-GUUGCUCUCCGAAAAUUUAtt-3′ (SEQ ID NO: 39), antisense strand: 5′-UAAAUUUUCGGAGAGCAACtc-3′ (SEQ ID NO: 40), S281: sense strand: 5′-GGCCGAUAUGGAGAAGUAUtt-3′ (SEQ ID NO: 41), antisense strand: 5′-AUACUUCUCCAUAUCGGCCtt-3′ (SEQ ID NO: 42), S282: sense strand: 5′-GAAUCUGGAUAGUAUGCUUtt-3′ (SEQ ID NO: 43), antisense strand: 5′-AAGCAUACUAUCCAGAUUCtg-3′ (SEQ ID NO: 44). The sequence portions printed in lowercase represent the overhang portions, as portions where the ribose backbone has been replaced with a deoxyribose backbone.

[1] = system: FOP patient derived cells; experiment: Evaluation of binding inhibitors: chondrocyte differentiation of FOP patient derived cells in copresence of human activin A; assay type: cell-based; conditions: copresence of 30 ng/mL human activin A, 6 days; vs activin-treated group
Description: Patient iPS cell line-derived mesenchymal stem cell-like cells were prepared by the same method as Example 1. The mesenchymal stem cell-like cells were cultured for 6 days by the same method as Example 3, for differentiation to chondrocytes. The effect of each factor on differentiation to chondrocytes was examined, with neutralizing antibody for human activin A (product of R&D Systems, Inc., trade name: Human/Mouse/Rat Activin A βA subunit Antibody), follistatin (product of R&D Systems, Inc., trade name: Recombinant Human Follistatin 315 as 30-344), follistatin-like 3 (product of R&D Systems, Inc., trade name: Recombinant Human Follistatin-related Gene Protein/FLRG), ACVR2A-Fc chimeric protein (product of R&D Systems, Inc., trade name: Recombinant Human Activin RIIA Fc Chimera (CHO)), or ACVR2B-Fc chimeric protein (product of R&D Systems, Inc., trade name: Recombinant Human Activin RIIB Fc Chimera), in the copresence of 30 ng/mL of human activin A. The ACVR2A-Fc chimeric protein is a fusion protein in which a polypeptide fragment having the amino acid sequence of positions 20 to 134 of the amino acid sequence listed as SEQ ID NO: 12, and the Fc region of the human-derived antibody, are bonded via a linker sequence (Ile-Glu-Gly-Arg-Met-Asp). The ACVR2B-Fc chimeric protein is a fusion protein in which a polypeptide fragment having the amino acid sequence of positions 19 to 134 of the amino acid sequence listed as SEQ ID NO: 14, and the Fc region of the human-derived antibody, are bonded via a linker sequence (Ile-Glu-Gly-Arg-Met-Asp). The extent of differentiation to chondrocytes was evaluated by Alcian blue staining and sulfated glycosaminoglycan assay, similar to Example 3. In FIG. 6(B), the bar graph indicates the mean values for each treated group, and the error bars represent S.D.

[2] = molecular target: T1, FOP patient-derived ACVR1 (Homo sapiens, UniProt Q04771, R206H); experiment: Luciferase reporter (BMP responsive sequence) transcription activity via ACVR1 in FOP patient derived cells; assay type: cell-based; conditions: ligand 1, 10, 100 ng/mL, 16 hours, significant at 10 and 100 ng/mL vs untreated group
T1 construct: The patient cells were confirmed to be cells having a typical FOP-associated mutation in the ACVR1 gene; endogenous in cells; host or cells: mesenchymal stem cell-like cells differentiated from an FOP patient-derived iPS cell line
T1 sequence (Q04771 21-509 R206H): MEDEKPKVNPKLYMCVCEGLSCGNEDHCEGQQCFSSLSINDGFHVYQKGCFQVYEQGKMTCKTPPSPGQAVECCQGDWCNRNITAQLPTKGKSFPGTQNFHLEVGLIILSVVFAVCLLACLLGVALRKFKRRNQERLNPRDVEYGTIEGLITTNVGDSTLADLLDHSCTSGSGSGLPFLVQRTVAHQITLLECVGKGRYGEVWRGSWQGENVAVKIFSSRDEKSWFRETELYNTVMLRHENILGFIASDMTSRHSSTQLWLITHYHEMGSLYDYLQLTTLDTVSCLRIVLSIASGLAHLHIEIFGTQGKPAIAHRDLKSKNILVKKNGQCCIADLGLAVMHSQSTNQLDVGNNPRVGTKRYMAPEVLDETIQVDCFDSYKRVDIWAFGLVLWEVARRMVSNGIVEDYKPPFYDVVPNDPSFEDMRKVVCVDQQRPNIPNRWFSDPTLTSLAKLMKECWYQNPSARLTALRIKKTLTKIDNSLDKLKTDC
Text: (§1) Following the method of Yamanaka et al. (Cell, 2007, 131 (5), […]), FOP patient-derived iPS cells (hereunder also referred to as “patient-derived iPS cell line”) were established. The patient cells were confirmed to be cells having a typical FOP-associated mutation in the ACVR1 gene. The mutation is a substitution of the 206th arginine residue of the amino acid sequence of ACVR1 (the amino acid sequence listed as SEQ ID NO: 10) with a histidine residue. Next, for use as a control, an iPS cell line with the ACVR1 gene mutation repaired to the normal type (wild type) by gene repair by a BAC knockin vector (hereunder also referred to as “gene-corrected iPS cell clone” or “gene-rescued iPS cell clone”) was established.
(§2) The patient-derived iPS cell line and gene-corrected iPS cell line were cultured on the matrix of a Matrigel coated plate (trade name: Growth Factor Reduced (GFR)BD Matrigel® by Becton & Dickinson), using mTeSR1 (Stem Cell Technologies) for 2 days under feeder-free conditions. Next, using serum-free medium [F12 Nutrient Mixture (product of Gibco)/Iscove's Modified Dulbecco's Medium (IMDM) (product of Sigma-Aldrich Japan, KK.)/0.5% bovine serum albumin (BSA) (product of Sigma-Aldrich Japan, KK.)/1% Chemically Defined Lipid (CD-Lipid) (product of Gibco, trade name: Chemically Defined Lipid Concentrate)/15 μg/mL apotransferrin (product of Sigma-Aldrich Japan, KK., trade name: apo-Transferrin human)/7 μg/mL insulin (product of Wako Pure Chemical Industries, Ltd., trade name: Insulin, Human, recombinant)/0.45 mM 1-Thioglycerol (product of Sigma-Aldrich Japan, KK.)] with addition of 10 μM SB-431542 (product of Selleck Chemicals) and 1 μM CHIR99021 (product of Wako Pure Chemical Industries, Ltd.), the patient-derived iPS cell line and gene-corrected iPS cell line were further cultured for 1 week under feeder-free conditions for differentiation to neural crest cells. […]
(§3) After mixing Firefly luciferase reporter plasmid having the BMP responsive sequence in the promoter region (J. Biol. Chem., 2002, 277(7), 4883-4891) and a plasmid having a nucleic acid sequence coding for Renilla luciferase downstream from CMV promoter, as an internal standard (product of Promega Corp., trade name: phRL-CMV Vector), FuGene® HD (Promega Corp.) was used for transfection into the mesenchymal stem cell-like cells. […] Next, the luciferase activity was measured according to the protocol provided with a Dual-Glo Luciferase Assay System (product of Promega Corp.). The luminescence was detected using an EnVision Multilabel Counter (product of Perkin-Elmer). […]

wild type ACVR1 = molecular target: T2, wild type ACVR1 (Homo sapiens, UniProt Q04771); experiment: Luciferase reporter (BMP responsive sequence) transcription activity in gene-corrected clone derived cells; assay type: cell-based; conditions: ligand 1, 10, 100 ng/mL, 16 hours
T2 construct: an iPS cell line with the ACVR1 gene mutation repaired to the normal type (wild type) by gene repair by a BAC knockin vector; endogenous in cells; host or cells: mesenchymal stem cell-like cells differentiated from the gene-corrected iPS cell clone
T2 sequence (Q04771 21-509): T1 sequence (Q04771 21-509 R206H) with H186R
Text: as §1, §2, §3

Substance: BMPR1A-2: siRNA for BMPR1A (Applied Biosystems S282), SEQ ID NO: 43/44 (chain 1 GAAUCUGGAUAGUAUGCUUTT; chain 2 AAGCAUACUAUCCAGAUUCTG; sugars from the 5' end r19 d2, backbone not given here)
transcription activation of the BMP responsive sequence by human activin A after siRNA knockdown (BMP responsive sequence): not affected

Substance: ACVR2A-Fc chimeric protein: Fusion of positions 20 to 134 of SEQ ID NO: 12 with human antibody Fc region via linker Ile-Glu-Gly-Arg-Met-Asp
differentiation of FOP patient derived cells to chondrocytes (Alcian blue staining, sulfated glycosaminoglycan assay) [1]: inhibited

transcription activity via ACVR1 (firefly/Renilla luciferase activity, BMP responsive sequence) [2]: significantly increased
transcription activity via ACVR1 (firefly/Renilla luciferase activity, BMP responsive sequence) (wild type ACVR1): not seen
Substance: human activin AB: Recombinant Human Activin AB (R&D Systems); heterodimer of βA chain and βB chain

Substance: ACVR1-2: siRNA for ACVR1 (Applied Biosystems S976), SEQ ID NO: 39/40 (chain 1 GUUGCUCUCCGAAAAUUUATT; chain 2 UAAAUUUUCGGAGAGCAACTC; sugars from the 5' end r19 d2, backbone not given here)
transcription activation of the BMP responsive sequence by human activin A after siRNA knockdown (BMP responsive sequence): disappeared

transcription activity via ACVR1 (firefly/Renilla luciferase activity, BMP responsive sequence) [2]: significantly increased
transcription activity via ACVR1 (firefly/Renilla luciferase activity, BMP responsive sequence) (wild type ACVR1): not seen
Substance: human activin B: Recombinant Human Activin B (R&D Systems); homodimer of βB chains

Substance: ACVR1-1: siRNA for ACVR1 (Applied Biosystems S975), SEQ ID NO: 37/38 (chain 1 GGAUCAUUCGUGUACAUCATT; chain 2 UGAUGUACACGAAUGAUCCAA; sugars from the 5' end r19 d2, backbone not given here)
transcription activation of the BMP responsive sequence by human activin A after siRNA knockdown (BMP responsive sequence): disappeared

Substance: BMPR1A-1: siRNA for BMPR1A (Applied Biosystems S281), SEQ ID NO: 41/42 (chain 1 GGCCGAUAUGGAGAAGUAUTT; chain 2 AUACUUCUCCAUAUCGGCCTT; sugars from the 5' end r19 d2, backbone not given here)
transcription activation of the BMP responsive sequence by human activin A after siRNA knockdown (BMP responsive sequence): not affected
